Source: patent US20160177395A1, “BIOMARKERS FOR THE PREDICTION OF RENAL INJURY” (priority 2007, published 2016)
Where “and” joins values, the source holds several entries; their conditions need not be identical. Equal values may be shown once.

Assays:
kidney = assay: Renal histopathology of rats treated with T1, T2, T3; type: in vivo, rat; details: rats
Method: Each group consisted of 6 male and 6 female rats. The additional groups consisted of 6 males and 6 female rats treated with control compound for a single day and for five days, as described in Table 24.
T2 “no observed effect level” (NOEL, i.e., the maximal dose at which no toxic effect is visible) is 15 mg/kg.
At autopsy, both kidneys of each animal were removed and each kidney was cross sectioned. Half of each kidney was sent to RNA extraction and analysis.

rat kidney samples = assay: Random-Forest classifiers applied to un-labeled samples of T1, T2, T3 and control (Table 30); details: for Average 'Toxic' (%): average of the two classifiers
Method: To validate the optimal signature for classification of renal toxicity of a compound after five days of application a test of the signatory polynucleotide/gene expression in rat kidney samples consisting of tissues from rats exposed to three drug compounds and a single control group was carried out (Teva Pharmaceutical Industries, IL).
The two optimal classifiers (signatures described in Tables 26 and 27) were applied to the qRT-PCR reads of the un-labeled samples and their calls was used to assign a level of toxicity to each group and, eventually, each compound.
The classifiers described in Tables 26 and 27, were used for testing the un-labeled samples. Both classifiers were applied to the measurements of each sample, used the 30% bound from above, and the number of samples pass that bound in each group were summarized.

[1] = system: kidney tissues of treated or untreated rats; assay: Real-time qRT-PCR of signature amplicons, validation stage, labeled and un-labeled samples (Table 23); details: for H31883_DB71_seg13 normalized qRT-PCR result / MUSCYCG1R_DB81_seg19-20 normalized qRT-PCR result / W41270_DB81_seg11 normalized qRT-PCR result: un-labeled sample, one line per animal; for AI045075_DB71_seg6 normalized qRT-PCR expression (Interferon stimulated exonuclease 20 (ISG20) transcript) / H31883_DB71_seg13 normalized qRT-PCR expression (Cyclin-G1 (CCNG1) transcript) / MUSCYCG1R_DB81_seg19-20 normalized qRT-PCR expression / W41270_DB81_seg11 normalized qRT-PCR expression (tumor necrosis factor receptor superfamily, member 12a transcript) / W64472_DB81_seg2 normalized qRT-PCR expression (Interferon stimulated exonuclease 20 (ISG20) transcript) / W83813_DB81_seg27 normalized qRT-PCR expression: un-labeled samples, kidney of individual male/female rats
Text: New primers were designed for part of the transcripts, and new conditions for several qRT-PCR reactions were used, as described below.
The measurements were normalized in two steps. First—according to the house-keeping-genes normalization factor, and second—each plate was normalized according to ratio of the intensity measurements from samples appearing in it and in the shuffled (normalization) plate (Table 25 provides the plates details and the section “Inter-Plate Normalization” provides details of the normalization process). The normalized values were further scaled by a factor, for ease of viewing.
RT was prepared and qRT-PCR performed and analyzed as described hereinabove. qRT-PCR was performed for the four genes comprising the signature of the discovery stage described in Table 13. Two amplicons were tested for each gene—one representing the wild-type transcript, and another representing an alternative splice variant. Each amplicon was measured using the labeled samples described in Table 9 herein, as well as the un-labeled samples. Samples from both groups (labeled and un-labeled) were tested in seven 96 well plates as described in Table 25. In order to correct possible run to run variations, the following controls were added: 1. several samples were repeated in all 96 wells plates; 2. control shuffled plate was designed which combined samples from all seven test plates.
To account for possible differences of qRT-PCR measurements between the different plates due to experimental artifacts, a normalization plate was planned. This plate, designated hereinabove ‘shuffled plate’, contained samples from all other plates. Real Time PCR was performed on this plate using the primers appropriate for all candidates in tables 26 and 27. For each other plate (plates 1-7 above) and each amplicon, the samples appearing also in the shuffled plate were examined—the ratio between the transcript abundance as measured in the plate to the abundance as measured in the shuffled plate was calculated, outliers were manually removed, and the geometric mean of the left ratios was taken as an additional multiplicative normalization factor for the plate and amplicon.

[2] = Ds1, Day1, oral gavage, female rat kidney
[3] = Ds1, Day1, oral gavage, male rat kidney
[4] = Ds1, Day5, oral gavage, female rat kidney
[5] = Ds1, Day5, oral gavage, male rat kidney
[6] = Ds2, Day1, oral gavage, female rat kidney
[7] = Ds2, Day1, oral gavage, male rat kidney
[8] = Ds2, Day5, oral gavage, female rat kidney
[9] = Ds2, Day5, oral gavage, male rat kidney

C#CCN(C)c1nc2ccc(OC(F)(F)F)cc2s1 [T1]
Time after which visible pathological damage was seen (kidney): 28 days | Renal damage (kidney; dose and duration as in the value): renal damage, mainly in females, after 28 days of treatment at the 30 mg/kg dose | Average 'Toxic' (%) (rat kidney samples; Ds1 Day1 Female): 0% | Average 'Toxic' (%) (rat kidney samples; Ds1 Day1 Male): 17% | Average 'Toxic' (%) (rat kidney samples; Ds1 Day5 Female): 50% | Average 'Toxic' (%) (rat kidney samples; Ds1 Day5 Male): 50% | Average 'Toxic' (%) (rat kidney samples; Ds2 Day1 Female): 0% | Average 'Toxic' (%) (rat kidney samples; Ds2 Day1 Male): 0% | Average 'Toxic' (%) (rat kidney samples; Ds2 Day5 Female): 66.5% | Average 'Toxic' (%) (rat kidney samples; Ds2 Day5 Male): 33% | Toxicity conclusion from classifier calls (rat kidney samples; signatures of Tables 26 and 27, 30% bound): nephrotoxic agents | H31883_DB71_seg13 normalized qRT-PCR result [1, 2]: 0.825 and 0.917 and 1.186 | MUSCYCG1R_DB81_seg19-20 normalized qRT-PCR result [1, 2]: 0.49 and 0.762 and 0.981 | W41270_DB81_seg11 normalized qRT-PCR result [1, 2]: 0.752 and 0.548 and 1.047 | H31883_DB71_seg13 normalized qRT-PCR result [1, 3]: 0.155 and 0.178 and 0.143 and 0.169 and 0.245 | MUSCYCG1R_DB81_seg19-20 normalized qRT-PCR result [1, 3]: 0.574 and 1.13 and 0.805 and 0.4 and 1.416 | W41270_DB81_seg11 normalized qRT-PCR result [1, 3]: 0.778 and 1.501 and 0.981 and 0.439 and 1.502 | H31883_DB71_seg13 normalized qRT-PCR result [1, 4]: 1.511 and 1.328 and 1.593 and 0.893 | MUSCYCG1R_DB81_seg19-20 normalized qRT-PCR result [1, 4]: 1.162 and 1.367 and 1.089 and 0.831 | W41270_DB81_seg11 normalized qRT-PCR result [1, 4]: 0.745 and 0.945 and 0.938 and 0.606 | H31883_DB71_seg13 normalized qRT-PCR result [1, 5]: 0.125 and 0.208 and 0.165 and 0.207 and 0.2 and 0.323 | MUSCYCG1R_DB81_seg19-20 normalized qRT-PCR result [1, 5]: 2.031 and 0.904 and 0.937 and 0.783 and 1.364 and 0.717 | W41270_DB81_seg11 normalized qRT-PCR result [1, 5]: 1.835 and 0.991 and 0.687 and 0.902 and 1.35 and 0.684 | H31883_DB71_seg13 normalized qRT-PCR result [1, 6]: 0.861 and 0.549 and 0.725 and 1.045 | MUSCYCG1R_DB81_seg19-20 normalized qRT-PCR result [1, 6]: 1.067 and 0.514 and 0.639 and 0.965 | W41270_DB81_seg11 normalized qRT-PCR result [1, 6]: 0.898 and 0.415 and 0.502 and 1.028 | H31883_DB71_seg13 normalized qRT-PCR result [1, 7]: 0.889 and 0.656 and 0.473 | MUSCYCG1R_DB81_seg19-20 normalized qRT-PCR result [1, 7]: 0.932 and 0.544 and 0.541 | W41270_DB81_seg11 normalized qRT-PCR result [1, 7]: 1.326 and 0.785 and 0.592 | H31883_DB71_seg13 normalized qRT-PCR result [1, 8]: 1.025 and 0.454 and 1.074 and 1.674 | MUSCYCG1R_DB81_seg19-20 normalized qRT-PCR result [1, 8]: 0.935 and 1.478 and 0.868 and 1.487 | W41270_DB81_seg11 normalized qRT-PCR result [1, 8]: 0.989 and 1.223 and 0.652 and 1.056 | H31883_DB71_seg13 normalized qRT-PCR result [1, 9]: 0.654 and 1.077 and 1.236 and 0.596 | MUSCYCG1R_DB81_seg19-20 normalized qRT-PCR result [1, 9]: 0.539 and 1.161 and 1.793 and 0.73 | W41270_DB81_seg11 normalized qRT-PCR result [1, 9]: 0.527 and 1.181 and 2.203 and 0.784 | AI045075_DB71_seg6 normalized qRT-PCR expression (Interferon stimulated exonuclease 20 (ISG20) transcript) ([1]; dose Ds1, Day1, oral gavage): 0.843 and 0.636 and 0.572 | H31883_DB71_seg13 normalized qRT-PCR expression (Cyclin-G1 (CCNG1) transcript) ([1]; dose Ds1, Day1, oral gavage): 0.913 and 0.757 and 0.615 and 0.73 and 0.524 and 0.783 and 0.912 and 0.87 and 0.957 and 0.923 and 0.706 | MUSCYCG1R_DB81_seg19-20 normalized qRT-PCR expression ([1]; dose Ds1, Day1, oral gavage): 1.49 and 0.291 and 0.271 and 0.376 and 0.135 and 1.436 and 1.195 and 0.249 and 1.891 and 0.299 and 2.31 | W41270_DB81_seg11 normalized qRT-PCR expression (tumor necrosis factor receptor superfamily, member 12a transcript) ([1]; dose Ds1, Day1, oral gavage): 0.66 and 0.181 and 0.396 and 0.198 and 0.231 and 0.758 and 0.646 and 0.47 and 1.082 and 0.734 and 0.566 | W64472_DB81_seg2 normalized qRT-PCR expression (Interferon stimulated exonuclease 20 (ISG20) transcript) ([1]; dose Ds1, Day1, oral gavage): 1.118 and 0.683 and 0.49 | W83813_DB81_seg27 normalized qRT-PCR expression ([1]; dose Ds1, Day1, oral gavage): 0.216 and 0.843 and 0.926 | AI045075_DB71_seg6 normalized qRT-PCR expression (Interferon stimulated exonuclease 20 (ISG20) transcript) ([1]; dose Ds1, Day5, oral gavage): 0.692 and 0.627 | H31883_DB71_seg13 normalized qRT-PCR expression (Cyclin-G1 (CCNG1) transcript) ([1]; dose Ds1, Day5, oral gavage): 1.373 and 1.353 and 1.266 and 1.783 and 1.477 and 1.097 and 2.104 and 1.249 and 1.458 and 1.23 and 1.01 and 1.013 | MUSCYCG1R_DB81_seg19-20 normalized qRT-PCR expression ([1]; dose Ds1, Day5, oral gavage): 1.598 and 0.183 and 0.149 and 0.214 and 3.532 and 0.296 and 3.397 and 0.186 and 1.317 and 0.189 and 0.816 and 1.499 | W41270_DB81_seg11 normalized qRT-PCR expression (tumor necrosis factor receptor superfamily, member 12a transcript) ([1]; dose Ds1, Day5, oral gavage): 1.527 and 0.473 and 0.702 and 0.356 and 1.325 and 0.657 (2×) and 1.014 and 1.11 and 1.337 and 0.638 and 0.703 | W64472_DB81_seg2 normalized qRT-PCR expression (Interferon stimulated exonuclease 20 (ISG20) transcript) ([1]; dose Ds1, Day5, oral gavage): 0.571 and 0.528 | W83813_DB81_seg27 normalized qRT-PCR expression ([1]; dose Ds1, Day5, oral gavage): 0.795 and 0.885 | AI045075_DB71_seg6 normalized qRT-PCR expression (Interferon stimulated exonuclease 20 (ISG20) transcript) ([1]; dose Ds2, Day1, oral gavage): 0.483 and 0.759 and 0.448 and 0.547 and 0.396 | H31883_DB71_seg13 normalized qRT-PCR expression (Cyclin-G1 (CCNG1) transcript) ([1]; dose Ds2, Day1, oral gavage): 0.517 (2×) and 0.906 and 0.849 and 0.696 and 0.611 and 0.707 and 0.867 and 1.153 and 1.19 and 0.623 and 0.798 | MUSCYCG1R_DB81_seg19-20 normalized qRT-PCR expression ([1]; dose Ds2, Day1, oral gavage): 0.385 and 0.76 and 0.739 and 0.478 and 0.738 and 0.652 and 0.654 and 1.261 and 0.609 and 0.835 and 0.696 and 0.804 | W41270_DB81_seg11 normalized qRT-PCR expression (tumor necrosis factor receptor superfamily, member 12a transcript) ([1]; dose Ds2, Day1, oral gavage): 0.78 and 0.755 and 0.885 and 0.462 and 0.413 and 0.762 and 0.644 and 1.034 and 1.265 and 0.653 and 0.383 and 0.472 | W64472_DB81_seg2 normalized qRT-PCR expression (Interferon stimulated exonuclease 20 (ISG20) transcript) ([1]; dose Ds2, Day1, oral gavage): 0.944 and 1.213 and 0.661 and 0.559 and 0.462 | W83813_DB81_seg27 normalized qRT-PCR expression ([1]; dose Ds2, Day1, oral gavage): 1.186 and 0.984 and 0.34 and 0.689 and 0.56 | AI045075_DB71_seg6 normalized qRT-PCR expression (Interferon stimulated exonuclease 20 (ISG20) transcript) ([1]; dose Ds2, Day5, oral gavage): 0.797 and 0.766 and 1.01 and 0.629 | H31883_DB71_seg13 normalized qRT-PCR expression (Cyclin-G1 (CCNG1) transcript) ([1]; dose Ds2, Day5, oral gavage): 1.36 and 1.037 and 1.84 and 1.348 and 2.423 and 1.13 and 2.468 and 1.684 and 1.672 and 1.663 and 1.554 and 0.996 | MUSCYCG1R_DB81_seg19-20 normalized qRT-PCR expression ([1]; dose Ds2, Day5, oral gavage): 0.359 and 0.871 and 0.852 and 0.761 and 1.197 and 0.631 and 1.238 and 0.528 and 1.583 and 1.018 and 0.919 and 0.756 | W41270_DB81_seg11 normalized qRT-PCR expression (tumor necrosis factor receptor superfamily, member 12a transcript) ([1]; dose Ds2, Day5, oral gavage): 0.009 and 0.391 and 0.964 and 0.713 and 1.825 and 0.453 and 1.254 and 1.111 and 1.126 and 1.164 and 1 and 0.71 | W64472_DB81_seg2 normalized qRT-PCR expression (Interferon stimulated exonuclease 20 (ISG20) transcript) ([1]; dose Ds2, Day5, oral gavage): 0.803 and 0.863 and 0.982 and 0.554 | W83813_DB81_seg27 normalized qRT-PCR expression ([1]; dose Ds2, Day5, oral gavage): 1.092 and 1.125 and 0.885 and 0.55
